According to patent publication US20160297763A1, “Heteroaryl hydroxamic acid derivatives and their use in the treatment, amelioration or prevention of a viral disease” (priority 2011, published 2016):
pIC50, pKd: −log10 of the molar value. Where two headings read alike, the source gives them in different places.

How the values were obtained:
[1] = system: influenza A virus A/Aichi/2/68 (H3N2); assay: Cytopathic effect (CPE) assay H3N2; assay type: cell-based, influenza A virus (H3N2) on MDCK cells; details: for inhibition at 2.5 µM: H3N2, activity conc 2.5 (μM per method); for pIC50: H3N2, read-out: CPE H3N2 IC50; for inhibition at 20 µM: H3N2, activity conc 20 (μM per method); for inhibition at 10 µM: H3N2, activity conc 10 (μM per method)
Procedure: A possible measure of the […] antiviral activity of the compounds having the formula I or II is the CPE assay disclosed herein. […] In this connection, the reduction in the virus-mediated cytopathic effect (CPE) upon treatment with the compounds was calculated as follows: The cell viability of infected-treated and uninfected-treated cells was determined using an ATP-based cell viability assay (Promega). The response in relative luminescent units (RLU) of infected-untreated samples was subtracted from the response (RLU) of the infected-treated samples and then normalized to the viability of the corresponding uninfected sample resulting in % CPE reduction.
The influenza A virus (IAV) was obtained from American Tissue Culture Collection (A/Aichi/2/68 (H3N2); VR-547). Virus stocks were prepared by propagation of virus on Mardin-Darby canine kidney (MDCK; ATCC CCL-34) cells and infectious titres of virus stocks were determined by the 50% tissue culture infective dose (TCID50) analysis as described in Reed, L. J., and H. Muench. 1938, Am. J. Hyg. 27:493-497.
MDCK cells were seeded in 96-well plates at 2×10^4 cells/well using DMEM/Ham's F-12 (1:1) medium containing 10% foetal bovine serum (FBS), 2 mM L-glutamine and 1 antibiotics (all from PAA). Until infection the cells were incubated for 5 hrs at 37° C., 5.0 CO2 to form a ˜80% confluent monolayer on the bottom of the well. Each test compound was dissolved in DMSO and generally tested at 25 μM and 250 μM. In those cases where the compounds were not soluble at that concentration they were tested at the highest soluble concentration. The compounds were diluted in infection medium (DMEM/Ham's F-12 (1:1) containing 5 μg/ml trypsin, and 1% antibiotics) for a final plate well DMSO concentration of 1%. The virus stock was diluted in infection medium (DMEM/Ham's F-12 (1:1) containing 5 μg/ml Trypsin, 1% DMSO, and 1% antibiotics) to a theoretical multiplicity of infection (MOI) of 0.05.
After removal of the culture medium and one washing step with PBS, virus and compound were added together to the cells. In the wells used for cytotoxicity determination (i.e. in the absence of viral infection), no virus suspension was added. Instead, infection medium was added. Each treatment was conducted in two replicates. After incubation at 37° C., 5% CO2 for 48 hrs, each well was observed microscopically for apparent cytotoxicity, precipitate formation, or other notable abnormalities. Then, cell viability was determined using CellTiter-Glo luminescent cell viability assay (Promega). The supernatant was removed carefully and 65 μl of the reconstituted reagent were added to each well and incubated with gentle shaking for 15 min at room temperature. Then, 60 μl of the solution was transferred to an opaque plate and luminescence (RLU) was measured using Synergy HT plate reader (Biotek).
Relative cell viability values of uninfected-treated versus uninfected-untreated cells were used to evaluate cytotoxicity of the compounds. Substances with a relative viability below 80% at the tested concentration were regarded as cytotoxic and retested at lower concentrations.
Reduction in the virus-mediated cytopathic effect (CPE) upon treatment with the compounds was calculated as follows: The response (RLU) of infected-untreated samples was subtracted from the response (RLU) of the infected-treated samples and then normalized to the viability of the corresponding uninfected sample resulting in % CPE reduction.

[2] = target: PB2 cap binding domain (CBD) (Influenza A virus, UniProt Q9Q0V1); assay: biochemical; design: species or system avian H5N1 influenza virus
Chain of PB2 cap binding domain (CBD) (Q9Q0V1 318-483 limits assumed): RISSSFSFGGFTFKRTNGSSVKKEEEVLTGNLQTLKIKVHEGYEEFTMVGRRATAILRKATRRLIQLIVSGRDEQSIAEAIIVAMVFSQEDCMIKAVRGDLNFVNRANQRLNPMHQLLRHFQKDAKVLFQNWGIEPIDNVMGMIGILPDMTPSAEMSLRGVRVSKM

[3] = target: PA-Nter (Influenza A virus, UniProt P31343); assay: Biacore PA-Nter binding; details: activity conc 50
[4] = ALPHA screen
[5] = Influenza A virus, read-out: CPE H3N2 reduction (%)
[6] = Influenza A virus, H3N2, activity conc 5 (μM per method), read-out: CPE H3N2 reduction (%)
[7] = Influenza A virus, H3N2, activity conc 50 (μM per method), read-out: CPE H3N2 reduction (%)
[8] = Influenza A virus, H3N2, activity conc 2 (μM per method), read-out: CPE H3N2 reduction (%)
[9] = Influenza A virus, H3N2, activity conc 25 (μM per method), read-out: CPE H3N2 reduction (%)
[10] = Influenza A virus, H3N2, read-out: CPE H3N2 reduction (%), activity conc 50 (μM per method)

Structure (SMILES) | pIC50 ([1]; Influenza A virus) | pKd [2] | other results
Cc1ccc(-c2sc3nc(N)[nH]c(=O)c3c2C)cc1 [SAV-7585] | 5.46 | 5.70 | inhibition at 2.5 µM [1, 5]: 28.9%
Cc1c(-c2ccc(Cl)c(C#N)c2)sc2nc(N)[nH]c(=O)c12 [SAV-7602] |  | 5.77 | inhibition at 20 µM [1, 5]: 67.9%
Cc1c(-c2cnccn2)sc2nc(N)[nH]c(=O)c12 [SAV-7608] |  | 5.24 | inhibition at 10 µM [1, 5]: 3.8%
Cc1c(-c2c(F)ccc(Cl)c2F)sc2nc(N)[nH]c(=O)c12 [SAV-7637] | 4.74 | 5.96 | inhibition at 5 µM [1, 6]: 1.5%
Cc1c(-c2cccc(Cl)c2)sc2nc(N)[nH]c(=O)c12 [SAV-7580] |  | 5.05 | IC50 ([1]; Influenza A virus, H3N2, read-out: CPE H3N2 IC50 [μM]): 11 µM; CPE H3N2 reduction (%) ([1]; activity conc 2 (μM per method)): 89.8%
Cc1c(-c2cc(C(F)(F)F)cc(C(F)(F)F)c2)sc2nc(N)[nH]c(=O)c12 [SAV-7600] |  | 5.42 | inhibition at 2 µM ([1]; Influenza A virus, H3N2, read-out: CPE H3N2 reduction (%), activity conc 2 (μM per method)): 5.8%
Cc1c(-c2cccc(C(F)(F)F)c2)sc2nc(N)[nH]c(=O)c12 [SAV-7581] | 4.77 | 5.85 | inhibition at 50 µM [1, 7]: 87.8%
Cc1c(-c2ccc(F)nc2F)sc2nc(N)[nH]c(=O)c12 [SAV-7621] |  | 4.15 | inhibition at 25 µM ([1]; Influenza A virus, H3N2, read-out: CPE H3N2 reduction (%), activity conc 25 (μM per method)): 14.3%
Cc1c(-c2ccc(F)c(C(F)(F)F)c2)sc2nc(N)[nH]c(=O)c12 [SAV-7613] |  | 5.82 | inhibition at 50 µM [1, 7]: 2.5%
CC1=C(c2cccc(F)c2)SC2N=C(N)NC(=O)C12 (stereo not drawn) [SAV-7606] |  | 5.10 | inhibition at 5 µM [1, 6]: 21.8%
Cc1cccc(-c2sc3nc(N)[nH]c(=O)c3c2C)c1 [SAV-7607] |  | 5.27 | inhibition at 2 µM [1, 8]: -0.4%
Nc1nc2sc(-c3ccccc3)c(Br)c2c(=O)[nH]1 [SAV-7631] |  | 6.18 | inhibition at 5 µM ([1]; Influenza A virus, H3N2, read-out: CPE H3N2 reduction (%), activity conc 5 (μM per method)): 4%
Cc1c(-c2ccc(F)cc2)sc2nc(N)[nH]c(=O)c12 [SAV-7601] |  | 5.96 | inhibition at 50 µM [1, 7]: 69.2%
Cc1c(-c2cccc(Cl)c2F)sc2nc(N)[nH]c(=O)c12 [SAV-7616] | 4.47 | 5.51 | inhibition at 10 µM [1, 5]: 68.7%
COc1ccc(-c2sc3nc(N)[nH]c(=O)c3c2C)cc1 [SAV-7575] |  | 5.40 | inhibition at 20 µM [1, 5]: 9.02%
Cc1c(-c2cccc(CN(C)C)c2)sc2nc(N)[nH]c(=O)c12 [SAV-7629] | 4.46 | 4.21 | inhibition at 50 µM [1, 7]: 38.3%
Cc1c(-c2ccccc2)sc2nc(NCCCO)[nH]c(=O)c12 [SAV-7582] |  | 5.38 | inhibition at 50 µM [1, 7]: 53.1%
Cc1c(-c2ccc(Cl)c(F)c2)sc2nc(N)[nH]c(=O)c12 [SAV-7624] | 4.19 | 6.70 | 
CC(c1ccccc1)c1cc2c(=O)[nH]c(N)nc2s1 (stereo not drawn) [SAV-7604] |  | 5.19 | inhibition at 20 µM [1, 5]: -4.7%
Cc1c(-c2ccccc2)sc2nc(N)[nH]c(=O)c12 [SAV-7475] | 4.68 | 5.34 | inhibition at 5 µM [1, 6]: 8.9%; Biacore PA-Nter Binding (RU) [3]: 13.16 RU
Cc1c(-c2ccc(F)c(C#N)c2F)sc2nc(N)[nH]c(=O)c12 [SAV-7628] | 4.37 | 5.14 | inhibition at 50 µM [1, 7]: 84.3%
Cc1c(-c2cccc(C#N)c2)sc2nc(N)[nH]c(=O)c12 [SAV-7594] | 4.85 | 5.70 | inhibition at 5 µM [1, 6]: 14.5%
Cc1c(-c2ccnc(C(F)(F)F)c2)sc2nc(N)[nH]c(=O)c12 [SAV-7625] |  | 4.92 | inhibition at 2.5 µM [1, 5]: -4%
Cc1c(-c2cc(C#N)ccc2F)sc2nc(N)[nH]c(=O)c12 [SAV-7615] | 4.92 | 5.52 | inhibition at 20 µM [1, 5]: 59.2%

Structure (SMILES) | pIC50 ([1]; Influenza A virus) | pKd [2] | other results
Cc1c(-c2ccc(Cl)cc2F)sc2nc(N)[nH]c(=O)c12 [SAV-7618] | 4.37 | 6.19 | inhibition at 50 µM [1, 7]: 77.4%
Cc1c(-c2ccccc2)sc2nc(NCCO)[nH]c(=O)c12 [SAV-7577] |  | 5.17 | inhibition at 20 µM [1, 5]: 2.85%
Nc1nc2sc(-c3ccccc3)cc2c(=O)[nH]1 [SAV-7549] |  | 5.06 | inhibition at 50 µM [1, 7]: -2.4%
Nc1nc2sc(Cc3ccccc3)cc2c(=O)[nH]1 [SAV-7517] |  | 4.89 | inhibition at 10 µM [1, 5]: -2.64%
Cc1c(Cc2ccccc2)sc2nc(N)[nH]c(=O)c12 [SAV-7521] |  | 5.22 | inhibition at 25 µM [1, 9]: 33.6%
COc1cc(-c2sc3nc(N)[nH]c(=O)c3c2C)ccc1Cl [SAV-7619] |  | 5.96 | inhibition at 2 µM [1, 8]: 3.4%
Cc1c(-c2cccc(C(N)=O)c2)sc2nc(N)[nH]c(=O)c12 [SAV-7599] |  | 5.28 | inhibition at 20 µM [1, 5]: -0.7%
Cc1c(-c2cccnc2)sc2nc(N)[nH]c(=O)c12 [SAV-7589] | 4.57 | 5.00 | inhibition at 50 µM [1, 7]: 63.1%
Cc1c(-c2cc(CN(C)C)ccc2F)sc2nc(N)[nH]c(=O)c12 [SAV-7630] |  | 4.24 | inhibition at 50 µM [1, 10]: 23.2%
Cc1ccccc1-c1sc2nc(N)[nH]c(=O)c2c1C [SAV-7596] |  | 4.96 | inhibition at 5 µM [1, 6]: 13.6%
Cc1c(-c2ccnc(Cl)c2F)sc2nc(N)[nH]c(=O)c12 [SAV-7633] | 4.41 | 5.92 | inhibition at 50 µM [1, 7]: 63.1%
Cc1c(-c2cccc(C#N)c2F)sc2nc(N)[nH]c(=O)c12 [SAV-7627] | 5.00 | 5.38 | inhibition at 50 µM [1, 7]: 71.2%
Cc1c(-c2ccc(F)c(C#N)c2)sc2nc(N)[nH]c(=O)c12 [SAV-7611] |  | 5.96 | inhibition at 2 µM [1, 8]: -1%
Cc1c(-c2ccc(Cl)c(C(=O)N(C)C)c2)sc2nc(N)[nH]c(=O)c12 [SAV-7626] |  | 5.19 | inhibition at 25 µM [1, 9]: -4.6%
Cc1c(-c2cc(C#N)ccc2Cl)sc2nc(N)[nH]c(=O)c12 [SAV-7617] |  | 5.70 | inhibition at 2 µM [1, 8]: 5.1%
Cc1c(-c2ccc(Cl)c(O)c2)sc2nc(N)[nH]c(=O)c12 [SAV-7622] |  | 5.62 | inhibition at 2 µM [1, 8]: 6.2%
Cc1c(-c2ccc(Cl)nc2)sc2nc(N)[nH]c(=O)c12 [SAV-7632] |  | 6.12 | inhibition at 50 µM [1, 10]: 53%
Cc1c(-c2ccc(F)cc2F)sc2nc(N)[nH]c(=O)c12 [SAV-7610] |  | 5.42 | inhibition at 2 µM [1, 8]: -1.6%; EC50 [4]: 0.62 µM
Cc1c(C2=CCNCC2)sc2nc(N)[nH]c(=O)c12 [SAV-7614] |  | 3.72 | inhibition at 50 µM [1, 7]: 10.6%
Cc1c(-c2ccc(Cl)cc2)sc2nc(N)[nH]c(=O)c12 [SAV-7579] |  | 6.57 | inhibition at 20 µM [1, 5]: 11.3%
Nc1nc2sc(-c3ccccc3)c(Cl)c2c(=O)[nH]1 [SAV-7639] |  | 5.74 | inhibition at 50 µM [1, 10]: 59.9%
Cc1c(-c2ccncc2)sc2nc(N)[nH]c(=O)c12 [SAV-7586] | 5.28 | 4.92 | inhibition at 15 µM ([1]; Influenza A virus, H3N2, activity conc 15 (μM per method), read-out: CPE H3N2 reduction (%)): 81.2%
Cc1c(-c2ccccc2F)sc2nc(N)[nH]c(=O)c12 [SAV-7598] |  | 5.43 | inhibition at 2 µM [1, 8]: 11.4%
